A short description of this data set: DPPH radical scavenging activity. Type of data set: ADME. In general terms: DPPH is a stable violet radical that fades when it is reduced.

As to `OC[C@@H](O)[C@@H]1O[C@H]2O[C@@H]3[C@@H](O)[C@H](O[C@@H]4[C@@H](O)[C@H](O[C@@H]5[C@@H](O)[C@H](O[C@@H]6[C@@H](O)[C@H](O[C@@H]7[C@@H](O)[C@H](O[C@@H]8[C@@H](O)[C@H](O[C@@H]9[C@@H](O)[C@H](O[C@@H]1[C@H]2O)O[C@H]9[C@H](O)CO)O[C@H]8[C@H](O)CO)O[C@H]7[C@H](O)CO)O[C@H]6[C@H](O)CO[C@@H]1O[C@H](CO)[C@@H](O[C@@H]2O[C@H](CO)[C@@H](O)[C@@H]2O)[C@H](O)[C@H]1O)O[C@H]5[C@H](O)CO)O[C@H]4[C@H](O)CO)O[C@H]3[C@H](O)CO`, the SC50 was 11.72 µg/mL.
`O=C1O[C@H]([C@@H](O)CO)C(O)=C1O` [ASCORBIC ACID] yielded an SC50 of 5.24 µg/mL.

These data come from ChEMBL document CHEMBL1144740, “Structural characterization and DPPH radical scavenging activity of an arabinoglucogalactan from Panax notoginseng root” (J Nat Prod, 2008).
